Measured values reported in patent US20180119171A1, “REPLICATIVE VACCINIA VIRUS VECTOR HIV VACCINE” (priority 2014, published 2018).

What was measured:
VTT [1] = test system: VTT; parameters: species or system C57BL mice; conditions: mouse, in vivo
TT-TK [2] = assay type: cell-based, recombinant vaccinia virus Tiantan strain
vaccinia virus = conditions: reference [10]; cited from earlier work
TT-TK [3] = test system: TT-TK; parameters: species or system C57BL mice; conditions: mouse, in vivo
TT-EnvTK = assay type: cell-based, recombinant vaccinia virus Tiantan strain
VTT [4] = assay type: cell-based, vaccinia virus Tiantan strain

## Nc1nc(O)c2ncn(COC(CO)CO)c2n1 [GCV, ganciclovir]
VTT [1]
  virus titre in mice ovaries, VTT inoculation, GCV injected: 1×10^6 PFU
TT-TK [2]
  inhibition effect on virus plaque number, TT-TK: clear inhibition effects
Vaccinia virus
  EC50: > 300 µM
TT-TK [3]
  virus titre in mice ovaries, TT-TK inoculation, GCV injected: No virus was detected
TT-EnvTK
  inhibition effect on virus plaque number, TT-EnvTK: clear inhibition effects
VTT [4]
  inhibition effect on virus plaque number, VTT: no inhibition effects
